How the values were obtained:
Settings in all cases: exposure time: 72 h
FT3469 [1] = normal neural stem cell line; experiment: surviving fraction (nuclei count normalised to DMSO); higher = more cells surviving (less toxic)
E28 [2] = patient-derived glioblastoma stem cells of classical subtype; experiment: as above
E57 [3] = patient-derived glioblastoma stem cells of mesenchymal subtype; experiment: as above
E21 [4] = patient-derived glioblastoma stem cells of mesenchymal subtype; experiment: as above
E34 [5] = patient-derived glioblastoma stem cells of proneural subtype; experiment: as above
E31 [6] = patient-derived glioblastoma stem cells of proneural subtype; experiment: as above
E13 [7] = patient-derived glioblastoma stem cells of classical subtype; experiment: as above
FT3469 [8] = experiment: phenotypic distance (Euclidean, principal components) from DMSO controls (arbitrary units); higher = stronger morphological change
E28 [9] = experiment: as above
E57 [10] = experiment: as above
E21 [11] = experiment: as above
E34 [12] = experiment: as above
E31 [13] = experiment: as above
E13 [14] = experiment: as above
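Throughout, for phenotypic distance (Euclidean, principal components) from DMSO controls: cell Painting imaging in 384-well plates, CellProfiler features reduced to at least 20 principal components, Euclidean distance versus same-plate DMSO vehicle wells (0.1% v/v), median over six images per well.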
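Throughout, for surviving fraction (nuclei count normalised to DMSO): nuclei counted by high-content imaging of Hoechst-stained cells in laminin-coated 384-well plates, relative to 0.1% DMSO vehicle wells, with staurosporine as cell-death control.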

CCCCC1C(=O)N(c2ccccc2)N(c2ccc(O)cc2)C1=O (stereo not drawn) [Oxyphenbutazone]
Settings	phenotypic distance	surviving fraction
E13 [7], 4.1 nM	–	1.06
E13 [7], 12.3 nM	–	1.12
E13 [7], 37 nM	–	0.991
E13 [7], 111.1 nM	–	1.1
E13 [7], 333.3 nM	–	1.11
E13 [7], 1000 nM	–	1.04
E13 [7], 3000 nM	–	0.978
E13 [14], 4.1 nM	0.562	–
E13 [14], 12.3 nM	0.782	–
E13 [14], 37 nM	0.706	–
E13 [14], 111.1 nM	0.835	–
E13 [14], 333.3 nM	1.34	–
E13 [14], 1000 nM	0.708	–
E13 [14], 3000 nM	0.404	–
E21 [4], 4.1 nM	–	1.04
E21 [4], 12.3 nM	–	1.09
E21 [4], 37 nM	–	0.947
E21 [4], 111.1 nM	–	1.05
E21 [4], 333.3 nM	–	0.957
E21 [4], 1000 nM	–	1.05
E21 [4], 3000 nM	–	1.1
E21 [11], 4.1 nM	0.965	–
E21 [11], 12.3 nM	0.677	–
E21 [11], 37 nM	0.635	–
E21 [11], 111.1 nM	0.699	–
E21 [11], 333.3 nM	0.588	–
E21 [11], 1000 nM	0.698	–
E21 [11], 3000 nM	0.735	–
E28 [2], 4.1 nM	–	1.06
E28 [2], 12.3 nM	–	1.05
E28 [2], 37 nM	–	1.06
E28 [2], 111.1 nM	–	1.06
E28 [2], 333.3 nM	–	0.96
E28 [2], 1000 nM	–	1.02
E28 [2], 3000 nM	–	1.07
E28 [9], 4.1 nM	0.723	–
E28 [9], 12.3 nM	0.56	–
E28 [9], 37 nM	0.689	–
E28 [9], 111.1 nM	0.5	–
E28 [9], 333.3 nM	0.608	–
E28 [9], 1000 nM	0.532	–
E28 [9], 3000 nM	0.618	–
E31 [6], 4.1 nM	–	0.93
E31 [6], 12.3 nM	–	0.906
E31 [6], 37 nM	–	0.918
E31 [6], 111.1 nM	–	1.01
E31 [6], 333.3 nM	–	0.939
E31 [6], 1000 nM	–	1.07
E31 [6], 3000 nM	–	0.941
E31 [13], 4.1 nM	0.939	–
E31 [13], 12.3 nM	1.97	–
E31 [13], 37 nM	0.848	–
E31 [13], 111.1 nM	0.364	–
E31 [13], 333.3 nM	0.728	–
E31 [13], 1000 nM	0.522	–
E31 [13], 3000 nM	0.632	–
E34 [5], 4.1 nM	–	0.971
E34 [5], 12.3 nM	–	1.07
E34 [5], 37 nM	–	0.978
E34 [5], 111.1 nM	–	1.07
E34 [5], 333.3 nM	–	1.04
E34 [5], 1000 nM	–	1.11
E34 [5], 3000 nM	–	1.01
E34 [12], 4.1 nM	0.618	–
E34 [12], 12.3 nM	0.62	–
E34 [12], 37 nM	0.522	–
E34 [12], 111.1 nM	0.833	–
E34 [12], 333.3 nM	0.434	–
E34 [12], 1000 nM	1.17	–
E34 [12], 3000 nM	0.608	–
E57 [3], 4.1 nM	–	1.04
E57 [3], 12.3 nM	–	1.02
E57 [3], 37 nM	–	0.983
E57 [3], 111.1 nM	–	0.979
E57 [3], 333.3 nM	–	1.06
E57 [3], 1000 nM	–	0.965
E57 [3], 3000 nM	–	0.938
E57 [10], 4.1 nM	0.925	–
E57 [10], 12.3 nM	0.967	–
E57 [10], 37 nM	0.794	–
E57 [10], 111.1 nM	0.629	–
E57 [10], 333.3 nM	0.441	–
E57 [10], 1000 nM	0.546	–
E57 [10], 3000 nM	0.652	–
FT3469 [1], 4.1 nM	–	0.985
FT3469 [1], 12.3 nM	–	0.955
FT3469 [1], 37 nM	–	0.951
FT3469 [1], 111.1 nM	–	1.13
FT3469 [1], 333.3 nM	–	1.03
FT3469 [1], 1000 nM	–	0.989
FT3469 [1], 3000 nM	–	1.08
FT3469 [8], 4.1 nM	0.918	–
FT3469 [8], 12.3 nM	0.982	–
FT3469 [8], 37 nM	0.908	–
FT3469 [8], 111.1 nM	0.496	–
FT3469 [8], 333.3 nM	0.356	–
FT3469 [8], 1000 nM	0.51	–
FT3469 [8], 3000 nM	0.472	–
